Results reported in patent US12410189B2, “Polymorphs and solid forms of (S)-2-2((2-((S)-4-(difluoromethyl)-2-oxooxazolidin-3-yl)-5,6-dihydrobenzo[f]imidazo[1,2-d][1,4]oxazepin-9-yl)amino)propanamide, and methods of production” (Genentech, Inc., priority 2017, dated 2025).
In brackets after ≈: the same amount, converted by molar mass. Entries after “also recorded” stand apart in the source; their conditions may differ. Values belong to the molecule of their own block, whether it stands above or below them.

Key:
[1] = Particle size distribution analysis (PSD); assay type: physicochemical
Protocol: Particle size analysis was performed using a Malvern Mastersizer 2000 instrument equipped with a Hydros 2000SM wet dispersion attachment (Malvern Instruments Ltd., Malvern, UK). ˜30 mg of API was weighed into a vial and 1 mL of 0.1% Span 85 in heptane was added. The vial was sonicated for 5 seconds, about 0.3 mL was added to the sampler at a stir speed of 1500 rpm, and a PSD was performed at an obscuration of 10-20%. The sample was then sonicated for 10 more seconds (a total of 15 seconds), about 0.3 mL was added to the sampler, a PLM image was acquired, and PSD was performed. The same sample was then sonicated for another 15 seconds (a total of 30 seconds), about 0.3 mL was added, a PLM photo was taken and PSD was performed. From the sonication study, an appropriate sonication period was chosen. The PLM images and PSDs were used to determine how much sonication the sample needed to disperse clumps but prevent or minimize crystal fracturing. Three more samples, of ˜10 mg, were weighed into vials and 1 mL of 0.1% Span 85 in heptane was added. The samples were sonicated for the sonication period determined in the sonication study. The final PSD analysis was performed in triplicate using the predetermined sonication period. The instrument was rinsed twice with isopropyl alcohol (IPA) and once with heptane before being filled with 0.1% Span 85 in heptane for each sample. After the last sample had run, the instrument was rinsed with IPA once.

[2] = Jet milling of Form A, physical form after size reduction; assay type: physicochemical; details: jet mill
Protocol: (§1) Milling of Form A may optimize certain PK properties. A scaled up Form A lot was milled and also placed on stability studies (40° C./75% RH, 25° C./60% RH, open vials). Three more lots were also milled which behaved similarly upon milling. A milled representative lot was characterized and the physical form was determined. This lot was slurried in 100% ethanol to obtain Form A and milled using a jet mill at for 3.5 hrs with 60 psi pressure. […] The particle size analysis (PSD) was determined to be D10=0.7 μm, D50=2.7 μm, D90=6.7 μm. Post milling, a portion of the API (Active Pharmaceutical Ingredient, i.e. GDC-0077) batch was placed on stability at 40° C./75% RH and 25° C./60% RH in open vials. Solid-state data was collected at 4 and 8 weeks to evaluate effect of temperature and humidity on the physical form. The milled and stability samples were characterized by XRPD, PLM, DSC, TGA, Water sorption analysis and surface area analysis. DSC runs were performed in the modulated mode using non-hermetically crimped pans, a heating rate of 1° C./min from 0-175° C., modulation amplitude of ±1° C. and a period of 60 seconds.

[3] = Stability study of milled Form A in open vials; assay type: physicochemical; details: up to 8 weeks
Protocol: as §1

[4] = Slurry of Form A in DI water, anhydrate to hydrate conversion by XRPD; assay type: physicochemical
Protocol: Conversion of anhydrous Form A to Form B was investigated. […] To check for hydrate formation, Form A was slurried in DI water for 4 days (RT). Form conversion (anhydrate to hydrate) was initiated at 12 hours and was complete within 4 days, as detected by XRPD with reference to Form B. Anhydrate (Form A) to hydrate (Form B) conversion was measured upon slurrying in DI water for 4 days. […] Form conversion is complete by 96 hrs.

[5] = Slurry bridging of Forms A and D (1:1) in n-propanol; assay type: physicochemical
Protocol: Based on Burger and Ramberger's “Heat of Fusion Rule” of polymorphism, two polymorphs are considered to be monotropic if the one with the higher melting point has a greater heat of fusion as well (Burger and Ramberger, Mikrochimica Acta (1979), 256). […] To confirm this further, a slurry bridging experiment was conducted at RT in n-propanol, which had previously yielded Form D from the crude API.
(§2) Deionized (DI) Water-ethanol (absolute alcohol) mixtures of different compositions ranging from 0-100% water were prepared and their water activities were measured using a water activity meter. Slurry experiments were set up at RT wherein 1:1 mixtures of trihydrate and anhydrous forms of GDC-0077 (40 mg total) were added to these solvent mixtures (1.5 mL liquid) and agitated at RT over 4 days. After 4 days, the samples were aliquoted and centrifuged. The solids were analyzed by XRPD and the supernatant was analyzed for water activity. 1:1 mixture of Forms A and D was slurried in in-propanol overnight at RT. The slurry was centrifuged and the solid form was analyzed by XRPD.

[6] = Water sorption analysis (dynamic vapor sorption); assay type: physicochemical
Protocol: About 5-6 mg of powder sample was placed in the sample pan of an automated water sorption analyzer (Q5000SA, TA instruments, New Castle, DE) at 25° C. and a nitrogen flow rate of 200 mL/min. The sample was initially “dried” at 0% RH for a total of 600 minutes (at 60 followed by 25° C.), following which it was subjected to progressive increase in RH from 0-90%, in increments of 10% with a dwell time of 240 minutes at every RH with a dm/dt window of 0.001% for 30 minutes. This was followed by a progressive decrease in RH in decrements of 10% back to 0% RH, using the same protocol. For hydrate samples, the process was reversed where the starting RH was maintained at 90%, followed by a progressive step-wise lowering to 0%, followed by similar step wise increase back to 90%. This was done to ensure that the water of hydration is retained at the start of the experiment.

[7] = Water solubility of Form A; assay type: physicochemical; details: pH 7.06, water, room temperature, pH of 7.06
Text: The trihydrate form was obtained by slurrying Form A in DI water over 4 days (RT), centrifuging the slurry to remove supernatant and then drying the solid at RT for a few hours.

[8] = Isothermal TGA dehydration of Form B; assay type: physicochemical; details: TGA held at 60° C.
Protocol: The desolvation behavior of Form B as well its ability to rehydrate was further characterized. […] As evident from the data, the hydrate dehydrates readily, losing almost all of its lattice water (12%) at 60° C. and rehydrates after 4 hours of equilibration which indicates easy passage of water in and out of the lattice. The water sorption desorption behavior of trihydrate Form B GDC-0077 at 25° C. is depicted in FIG. 10A. The dynamic vapor sorption experiment provides information about the dehydration behavior of Form B. Dehydration of Form B commences rapidly below 40% RH (desorption curve) and is complete by the time the sample is exposed to 0% RH. Although there is a hysteresis showing equilibrium lag, the anhydrous product rehydrates beyond 40% RH, equally readily. […] The trihydrate dehydrates in 2-3 steps whereas the anhydrate to hydrate formation occurs majorly in one step at >40% RH (25° C.).
Isothermal experiments: In a thermogravimetric analyzer (Q500 TGA, TA instruments), 3-4 mg of GDC-0077 samples were heated in an open aluminum pan from RT to 60° C. at a heating rate of 10° C./min held isothermally at 60° C. overnight. Samples were then either analyzed by XRPD or left to equilibrate at RT for 4 hours in the sample pan and then rerun isothermally at 60° C. using the same experimental parameters as mentioned above.

[9] = Slurry bridging of hydrate-anhydrate mixtures in ethanol-water mixtures, water activity; assay type: physicochemical; details: RT
Protocol: as §2, with “XRPD. An Aqualab 4TEV (Decagon Devices, WA) was used as the water activity meter in the capacitance sensor mode to acquire data at 25±0.2° C. for solvent mixtures and slurry supernatants. Instrument was calibrated using vendor provided standards (saturated salt solutions) over the aw range of 0.25-1. All aw values are obtained after stabilization of three consecutive reads.” for “XRPD.”

PI3K = PI3K (Homo sapiens, UniProt P42336); details: WO 2017/001645, US 2017/0015678, AACR 2017; cited from earlier work
[10] = Surface area analysis (BET); assay type: physicochemical; details: for BET Surface Area: Krypton gas adsorption
Protocol: Surface area measurement was conducted using a Micromeritics ASAP 2460 with a Micromeritics Smart VacPrep attachment (Micromeritics Instrument Corp., GA). A sample of 500 mg-1 g was weighed into an empty ASAP 2460 tube and placed on the Smart VacPrep, degassed for 24 hours under ambient conditions and then exposed to Krypton gas adsorption at […] and 100 mm Hg hold pressure. An 11-point measurement was made in the relative pressure range of 0.050-0.300 and the data was analyzed using MicroActive software provided by the vendor.

[11] = listed as printed without sonication time
[12] = after jet milling 3.5 hrs, 60 psi

Chain of PI3K (P42336 whole entry): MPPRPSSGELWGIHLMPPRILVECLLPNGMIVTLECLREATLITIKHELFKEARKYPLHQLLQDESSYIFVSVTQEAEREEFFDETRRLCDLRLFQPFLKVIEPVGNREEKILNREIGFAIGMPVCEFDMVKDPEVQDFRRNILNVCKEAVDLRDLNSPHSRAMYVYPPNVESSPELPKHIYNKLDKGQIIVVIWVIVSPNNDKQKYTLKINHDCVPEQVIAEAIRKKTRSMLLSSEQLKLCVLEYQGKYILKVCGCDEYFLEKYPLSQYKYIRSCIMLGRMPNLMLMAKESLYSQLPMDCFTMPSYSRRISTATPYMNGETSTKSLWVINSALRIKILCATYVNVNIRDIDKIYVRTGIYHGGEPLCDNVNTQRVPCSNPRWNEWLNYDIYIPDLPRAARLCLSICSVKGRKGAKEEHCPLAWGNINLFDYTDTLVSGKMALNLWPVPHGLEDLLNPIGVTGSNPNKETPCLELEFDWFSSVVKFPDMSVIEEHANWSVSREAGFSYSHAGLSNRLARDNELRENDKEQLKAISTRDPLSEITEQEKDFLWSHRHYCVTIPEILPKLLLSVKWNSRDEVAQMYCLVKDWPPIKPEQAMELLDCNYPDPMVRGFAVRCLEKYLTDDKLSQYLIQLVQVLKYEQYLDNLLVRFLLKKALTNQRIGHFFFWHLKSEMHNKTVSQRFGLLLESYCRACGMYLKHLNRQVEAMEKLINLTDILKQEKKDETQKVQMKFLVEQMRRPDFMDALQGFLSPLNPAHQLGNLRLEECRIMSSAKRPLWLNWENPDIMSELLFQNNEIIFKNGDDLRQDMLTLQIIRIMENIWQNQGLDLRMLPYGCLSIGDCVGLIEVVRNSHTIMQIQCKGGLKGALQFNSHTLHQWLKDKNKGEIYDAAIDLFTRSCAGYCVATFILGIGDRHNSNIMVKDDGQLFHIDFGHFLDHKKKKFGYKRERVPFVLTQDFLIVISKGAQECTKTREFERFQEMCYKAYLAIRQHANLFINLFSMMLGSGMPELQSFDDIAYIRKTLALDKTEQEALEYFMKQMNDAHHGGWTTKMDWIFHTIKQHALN
Chain of PI3K (P27986 whole entry partner): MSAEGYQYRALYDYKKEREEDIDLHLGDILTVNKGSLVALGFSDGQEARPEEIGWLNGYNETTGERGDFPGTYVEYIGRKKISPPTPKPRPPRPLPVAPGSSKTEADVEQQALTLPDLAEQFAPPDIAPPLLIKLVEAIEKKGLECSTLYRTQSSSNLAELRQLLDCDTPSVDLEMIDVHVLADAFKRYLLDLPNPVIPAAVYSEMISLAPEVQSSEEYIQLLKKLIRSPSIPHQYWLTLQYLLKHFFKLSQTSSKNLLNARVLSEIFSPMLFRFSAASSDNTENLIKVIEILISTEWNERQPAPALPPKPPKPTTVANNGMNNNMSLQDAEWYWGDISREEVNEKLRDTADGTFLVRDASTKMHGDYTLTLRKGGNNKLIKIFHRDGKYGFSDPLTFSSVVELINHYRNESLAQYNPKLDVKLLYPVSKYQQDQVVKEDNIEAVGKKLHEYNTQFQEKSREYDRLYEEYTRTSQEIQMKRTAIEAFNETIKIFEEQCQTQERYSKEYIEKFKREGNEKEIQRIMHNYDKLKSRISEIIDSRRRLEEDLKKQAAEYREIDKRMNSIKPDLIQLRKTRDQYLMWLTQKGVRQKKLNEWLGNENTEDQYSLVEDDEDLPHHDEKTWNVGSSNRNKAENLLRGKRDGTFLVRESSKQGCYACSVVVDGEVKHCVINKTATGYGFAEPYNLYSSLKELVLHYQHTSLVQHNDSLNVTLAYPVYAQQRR

D10 ([1]; 5 sec sonication): 3.24 μm
D50 ([1]; 5 sec sonication): 14.87 μm
D90 ([1]; 5 sec sonication): 40.92 μm
D[4.3] ([1]; 5 sec sonication): 19.09 μm
D10 ([1]; 15 sec sonication): 2.70 μm
D50 ([1]; 15 sec sonication): 10.93 μm
D90 ([1]; 15 sec sonication): 27.59 μm
D[4.3] ([1]; 15 sec sonication): 13.44 μm
D10 [1, 11]: 4.76 μm
D50 [1, 11]: 27.73 μm
D90 [1, 11]: 208.16 μm
D[4.3] [1, 11]: 74.60 μm
physical form upon milling [2]: remains stable
physical form stability ([3]; 25° C./60% RH): remains stable
physical form stability ([3]; 40° C./75% RH): remains stable
time by which form conversion is complete [4]: ≤ 96 h
time at which anhydrate to hydrate conversion was initiated ([4]; RT): 12 h
time to complete anhydrate to hydrate conversion ([4]; RT): ≤ 4 days
time within which anhydrate to hydrate conversion starts ([4]; hydrate marker peak by XRPD): ≤ 12 h
moisture uptake (water sorption) ([6]; 25° C., up to 90% RH): 0.25 % w/w
moisture uptake (water sorption) ([6]; 25° C., up to 90% RH, listed as Form I): < 0.3 % w/w
solubility [7]: 30.8 µg/mL (≈ 75.6 µM)
SMILES: C[C@H](Nc1ccc2c(c1)OCCn1cc(N3C(=O)OC[C@H]3C(F)F)nc1-2)C(N)=O [Form A, (S)-2-((2-((S)-4-(difluoromethyl)-2-oxooxazolidin-3-yl)-5,6-dihydrobenzo[f]imidazo[1,2-d][1,4]oxazepin-9-yl)amino) propanamide]
relative thermodynamic stability of the forms ([5]; Form A versus Form D, RT to 214° C.): thermodynamically stable form; also recorded: more stable form

lattice water lost on isothermal dehydration [8]: 12%
RH below which dehydration commences (desorption curve) ([6]; 25° C.): below 40 % RH
RH range where intermediate dehydrated form is evident ([6]; 25° C., desorption): 20-50 % RH
RH beyond which the anhydrous product rehydrates ([6]; 25° C., resorption): > 40 % RH
SMILES: C[C@H](Nc1ccc2c(c1)OCCn1cc(N3C(=O)OC[C@H]3C(F)F)nc1-2)C(N)=O [Form B, (S)-2-((2-((S)-4-(difluoromethyl)-2-oxooxazolidin-3-yl)-5,6-dihydrobenzo[f]imidazo[1,2-d][1,4]oxazepin-9-yl)amino) propanamide]

form conversion in slurry ([5]; Forms A and D 1:1, n-propanol, RT, overnight): converts to Form A
SMILES: C[C@H](Nc1ccc2c(c1)OCCn1cc(N3C(=O)OC[C@H]3C(F)F)nc1-2)C(N)=O [Form D, (S)-2-((2-((S)-4-(difluoromethyl)-2-oxooxazolidin-3-yl)-5,6-dihydrobenzo[f]imidazo[1,2-d][1,4]oxazepin-9-yl)amino) propanamide]

aw of anhydrate-hydrate equilibrium [9]: 0.82-0.86
equilibrium RH (relative humidity) zone for the two forms [9]: 82-86%
water content equivalent to equilibrium RH zone [9]: 65-83 % w/w
SMILES: C[C@H](Nc1ccc2c(c1)OCCn1cc(N3C(=O)OC[C@H]3C(F)F)nc1-2)C(N)=O [GDC-0077, (S)-2-((2-((S)-4-(difluoromethyl)-2-oxooxazolidin-3-yl)-5,6-dihydrobenzo[f]imidazo[1,2-d][1,4]oxazepin-9-yl)amino) propanamide]
PI3K activity (PI3K): potent

BET Surface Area [10]: 6.68 ± 0.16 m2/g
BET Surface Area ([10]; listed as milled lot): 6.68 m2/g
surface area from sauter mean diameter (D3,2) ([10]; calculated from particle size): 3.42 m2/g
increase in surface area upon milling ([10]; milled versus unmilled): 10 ×
D10 [1, 12]: 0.7 μm
D50 [1, 12]: 2.7 μm
D90 [1, 12]: 6.7 μm
increase in moisture uptake compared to the unmilled material ([6]; water sorption profile): 1 % w/w
SMILES: C[C@H](Nc1ccc2c(c1)OCCn1cc(N3C(=O)OC[C@H]3C(F)F)nc1-2)C(N)=O [Jet Milled]

BET Surface Area [10]: 0.78 ± 0.03 m2/g
BET Surface Area ([10]; listed as unmilled material): 0.78 m2/g
weight gain (water sorption) ([6]; up to 90% RH): 0.25%
SMILES: C[C@H](Nc1ccc2c(c1)OCCn1cc(N3C(=O)OC[C@H]3C(F)F)nc1-2)C(N)=O [Unmilled]
